The text below walks through data of patent US10800804B2, “Hybrid galactoside inhibitor of galectins” (GALECTO BIOTECH AB, priority 2014, dated 2020).

By Kd is commonly meant the equilibrium constant for the complex coming apart.

One experiment addresses Galectin-3 (Homo sapiens (Human), UniProt P17931). Nature of the experiment: Fluorescence anisotropy assay with high-affinity probe (SY), 50 nM galectin-3, 100 nM albumin. The class given is binding. The procedure:
(§1) 100 nM albumin was included as a carrier to prevent protein loss at such low concentration of galectin.
For orientation: Fluorescence polarisation rises when a labelled molecule tumbles more slowly, as on binding a larger partner.

Another experiment has as its target Galectin-1 (Homo sapiens (Human), UniProt P09382). Nature of the experiment: Fluorescence anisotropy assay, compound as inhibitor of galectin / fluorescein tagged saccharide probe interaction. It counts as binding. The procedure:
as §1

In the next experiment the target is galectins. The note with it: all galectins; reviewed by Leffler, 2001 and Leffler et al., 2004; cited from earlier work.

Sequence of Galectin-3 (P17931 whole entry): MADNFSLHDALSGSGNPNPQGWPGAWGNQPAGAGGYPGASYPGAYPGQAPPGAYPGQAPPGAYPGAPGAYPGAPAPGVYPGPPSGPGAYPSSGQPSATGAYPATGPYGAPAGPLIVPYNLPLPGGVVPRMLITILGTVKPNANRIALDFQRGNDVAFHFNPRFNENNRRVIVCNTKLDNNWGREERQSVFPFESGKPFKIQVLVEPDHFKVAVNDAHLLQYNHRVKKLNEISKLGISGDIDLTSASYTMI
Sequence of Galectin-1 (P09382 whole entry): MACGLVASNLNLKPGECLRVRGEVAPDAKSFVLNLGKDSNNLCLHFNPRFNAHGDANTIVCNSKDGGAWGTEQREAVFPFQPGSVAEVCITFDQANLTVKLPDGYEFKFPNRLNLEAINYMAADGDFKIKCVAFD

Turning to `OCC1O[C@@H](SC2O[C@H](CO)C(O)C(n3cc(-c4ccc(F)c(F)c4)nn3)[C@H]2O)C(O)[C@@H](n2cc(-c3ccc(F)c(F)c3)nn2)[C@H]1O` (stereo partly drawn) [Example 3a, 3,3′-dideoxy-3,3′-di-[4-(3,4-difluorophenyl)-1H-1,2,3-triazol-1-yl]-1,1′-sulfanediyl-di-β-D-galactopyranoside], the Kd on Galectin-3 (Experimental Section 2) was 3 nM; at Galectin-1 (Experimental Section 2), 78 nM.

For `OCC1O[C@@H](SC2O[C@H](CO)C(O)C(n3cc(-c4cc(F)c(F)c(F)c4)nn3)[C@H]2O)C(O)[C@@H](n2cc(-c3cc(F)c(F)c(F)c3)nn2)[C@H]1O` (stereo partly drawn) [Example 3b, 3,3′-bisdeoxy-3,3′-bis-[4-(3,4,5-trifluorophenyl)-1H-1,2,3-triazol-1-yl]-1,1′-sulfanediyl-di-β-D-galactopyranoside], the Kd at Galectin-3 (Experimental Section 2) is 1 nM; at Galectin-1 (Experimental Section 2) it was 79 nM.

Turning to `OCC1O[C@@H](SC2O[C@H](CO)C(O)C(n3cc(-c4cc(F)cc(F)c4)nn3)[C@H]2O)C(O)[C@@H](n2cc(-c3cc(F)cc(F)c3)nn2)[C@H]1O` (stereo partly drawn) [Example 3c, 3,3′-bisdeoxy-3,3′-bis-[4-(3,5-difluorophenyl)-1H-1,2,3-triazol-1-yl]-1,1′-sulfanediyldi-β-D-galactopyranoside], the Kd at Galectin-3 (Experimental Section 2) amounted to 2 nM; at Galectin-1 (Experimental Section 2), 110 nM.

With `O=c1oc2ccc(F)c(F)c2cc1COC1C(O)[C@@H](CO)OC(S[C@@H]2OC(CO)[C@H](O)[C@H](n3cc(-c4cccc(F)c4)nn3)C2O)[C@@H]1O` (stereo partly drawn) [Example S8a, 3′-Deoxy-3-O-[(5,6-difluoro-2-oxo-3-chromenyl)methyl]-3′-[4-(3-fluorophenyl)-1H-1,2,3-triazol-1-yl]-1,1′-sulfanediyl-di-β-D-galactopyranoside], the Kd is 28 nM on Galectin-3 (Experimental Section 1) and 320 nM at Galectin-1 (Experimental Section 1).

For `O=c1oc2ccc(F)c(F)c2cc1COC1C(O)[C@@H](CO)OC(S[C@@H]2OC(CO)[C@H](O)[C@H](n3cc(-c4cc(F)c(F)c(F)c4)nn3)C2O)[C@@H]1O` (stereo partly drawn) [Example S8b, 3′-Deoxy-3-O-[(5,6-difluoro-2-oxo-3-chromenyl)methyl]-3′-[4-(3,4,5-trifluorophenyl)-1H-1,2,3-triazol-1-yl]-1,1′-sulfanediyl-di-β-D-galactopyranoside], the Kd was 2 nM at Galectin-3 (Experimental Section 1) and 480 nM on Galectin-1 (Experimental Section 1).

Take `CCCCNC(=O)c1cn([C@@H]2C(O)[C@H](SC3O[C@H](CO)C(O)C(OCc4cc5c(F)c(F)ccc5oc4=O)[C@H]3O)OC(CO)[C@@H]2O)nn1` (stereo partly drawn) [Example S8c, 3′-{4-[(Butylamino)carbonyl]-1H-1,2,3-triazol-1-yl}-3′deoxy-3-O-[(5,6-difluoro-2-oxo-3-chromenyl)methyl]-1,1′-sulfanediyl-di-β-D-galactopyranoside]: the figures for the Kd at Galectin-3 (Experimental Section 1) and on Galectin-1 (Experimental Section 1) were 72 nM and 1200 nM, respectively.

In the case of `CCCCNC(=O)c1cn(C2C(O)[C@@H](CO)OC(S[C@@H]3OC(CO)[C@H](O)[C@H](n4cc(-c5cc(F)c(F)c(F)c5)nn4)C3O)[C@@H]2O)nn1` (stereo partly drawn) [Example S11, 3-{4-[(Butylamino)carbonyl]-1H-1,2,3-triazol-1-yl}-3,3′-dideoxy-3′-[4-(3,4,5-trifluorophenyl)-1H-1,2,3-triazol-1-yl]-1,1′-sulfanediyl-di-β-D-galactopyranoside], the Kd came out at 1 nM on Galectin-3 (Experimental Section 1) and 77 nM on Galectin-1 (Experimental Section 1).

For the compound `COc1c(F)c(F)c(C(=O)NC2C(O)C(CO)OC(SC3OC(CO)C(O)C(n4cc(-c5cccc(F)c5)nn4)C3O)C2O)c(F)c1F` [Example S16, 3,3′-Dideoxy-3′-[4-(3-fluorophenyl)-1H-1,2,3-triazol-1-yl]-3-(4-methoxy-2,3,5,6-tetrafluoro-benzamido)-1′-sulfanediyl-di-β-D-galactopyranoside], the Kd at Galectin-3 (Experimental Section 1) amounted to 7 nM; on Galectin-1 (Experimental Section 1), 90 nM.

Consider `O=C(NC1C(O)C(CO)OC(SC2OC(CO)C(O)C(n3cc(-c4cccc(F)c4)nn3)C2O)C1O)c1c2ccccc2cc2ccccc12` [Example S20a, 3-(9-anthracenecarboxamide)-3,3′-Dideoxy-3-[4-(3-fluorophenyl)-1H-1,2,3-triazol-1-yl]-1,1′-sulfanediyl-di-β-D-galactopyranoside], for which the Kd on Galectin-3 (Experimental Section 1) was determined as 64 nM; on Galectin-1 (Experimental Section 1) it was 380 nM.

As for `O=C(NC1C(O)C(CO)OC(SC2OC(CO)C(O)C(n3cc(-c4cccc(F)c4)nn3)C2O)C1O)c1ccc2cc3ccccc3cc2c1` [Example S20b, 3-(2-anthracenecarboxamide)-3,3′-Dideoxy-3-[4-(3-fluorophenyl)-1H-1,2,3-triazol-1-yl]-1,1′-sulfanediyl-di-β-D-galactopyranoside], the Kd at Galectin-3 (Experimental Section 1) was 140 nM; at Galectin-1 (Experimental Section 1), 490 nM.

Take `OCC1O[C@@H](SC2O[C@H](CO)C(O)C(n3cc(-c4ccccc4)nn3)[C@H]2O)C(O)[C@@H](n2cc(-c3cc(F)c(F)c(F)c3)nn2)[C@H]1O` (stereo partly drawn) [Example S21, 3,3′-Dideoxy-3-[4-(3,4,5-trifluorophenyl)-1H-1,2,3-triazol-1-yl]-3′-[4-phenyl-1H-1,2,3-triazol-1-yl]-1,1′-sulfanediyl-di-β-D-galactopyranoside]: the figures for the Kd at Galectin-3 (Experimental Section 1) and on Galectin-1 (Experimental Section 1) were 3 nM and 66 nM, respectively.

With `OC[C@H]1O[C@@H](O[C@H]2[C@H](O)[C@@H](O)C(O)O[C@@H]2CO)[C@H](O)[C@@H](O)[C@H]1O` (some centres unmarked) [lactose], the Kd at galectins is 500 to 1000 µM.
